LC50 data for two compounds are collected here from ChEMBL document CHEMBL1149744, “Terpenoids and Alkaloids from Esenbeckia belizencis. Spontaneous Oxidation of Furoquinoline Alkaloids” (J Nat Prod, 1992).

The data set relates to Artemia salina. Nature of the data set: Toxicity against Artemia salina. It counts as organism-based. The settings on record: in vivo.

As a reminder, the LC50 is the concentration lethal to half of the exposed cells or organisms. The low end stands for greater toxicity, the high end for lower toxicity.

Regarding `COc1cc2nc3occc3c(OC)c2cc1OC` [KOKUSAGININE], the LC50 is reported as 367 ppm.
The compound `COc1c2ccoc2nc2c(OC)c3c(cc12)OCO3` [FLINDERSIAMINE] returned an LC50 greater than 1000 ppm.
